According to patent US7141696B2, “Smooth muscle spasmolytic agents” (Bridge Pharma, Inc., priority 2003, dated 2006):

Tests used:
[1] = test system: QTc interval; test: Effects on the QT-interval of the ECG; set-up: species or system guinea pigs; settings: guinea pig, in vivo
Procedure: Anesthetized male guinea pigs (450–600 g) are used. The trachea is cannulated. Lead II electrocardiogram are recorded at 50 mm/sec. The is a 30 minute stabilization time after surgery, during which three baseline EKG recordings are made at 10-min intervals. Test article or vehicle are administered as an iv infusion over 30 min. ECG recordings are used to determine QT intervals and heart rates. To compensate for variations in heart rates, QTc intervals are calculated from QT- and RR-intervals as known to those skilled in the art. Prolongation of QTc is indicative of a prolonged action potential. Prolongation of QTc is a known cause of Torsades de Pointes ventricular fibrillation by drugs such as terodiline, terfenadine and astemizole (all of which have been withdrawn because of arrhythmogenic side effect).

[2] = test system: muscarinic receptors; settings: from prior publications and patents; cited from earlier work
[3] = test system: bladder hyperactivity; settings: cited from earlier work
[4] = test system: smooth muscle; settings: from prior patents; cited from earlier work

| SMILES | delay of cardiac repolarization (prolongation of the QTc interval of the ECG) [1] | anticholinergic activity / inhibition of muscarinic receptors [2] | bladder hyperactivity in patients suffering from urinary incontinence [3] | non-cholinergic spasmolytic activities [4] |
| --- | --- | --- | --- | --- |
| Cc1ccc(O)c([C@H](CCN(C(C)C)C(C)C)c2ccccc2)c1 [Tolterodine, R—N,N-diisopropyl-3-(2-hydroxy-5-methylphenyl)-3-phenylpropylamine] | potently prolongs the QTc interval | potent and non-selective inhibition of muscarinic receptors | reduce bladder hyperactivity | – |
| Cc1ccc(O)c(C(CCNC(C)C)c2ccccc2)c1 (centres unmarked) [DES-TOL] | – | anticholinergic activity was further decreased | – | express non-cholinergic spasmolytic activities |
| CC(C)N(CC[C@H](c1ccccc1)c1cc(CO)ccc1O)C(C)C [Example 5HM] | – | potent and non-selective inhibition of muscarinic receptors | – | – |
| Cc1ccc(O)c([C@@H](CCN(C(C)C)C(C)C)c2ccccc2)c1 [S-TOL] | – | little anticholinergic activity | – | express non-cholinergic spasmolytic activities |
